Test results as given in patent publication US12565489B2, “Heterocyclyl pyrimidines and triazines as novel fungicides” (Bayer Aktiengesellschaft, priority 2020, dated 2026).

Columns and labels:
Sphaerotheca fuliginea = assay: In vivo preventive test on Sphaerotheca fuliginea (powdery mildew on cucurbits); settings: Podosphaera fuliginea, 192 h; 500 ppm of active ingredient; preventive spray on young gherkin plants; evaluated 8 days after inoculation; read-out: efficacy
Description: (§1) The active ingredients were made soluble and homogenized in a mixture of Dimethyl sulfoxide/Acetone//Tween®80 and then diluted in water to the desired concentration. The young plants of gherkin were treated by spraying the active ingredient prepared as described above. Control plants were treated only with an aqueous solution of Acetone/Dimethyl sulfoxide/Tween® 80. After 24 hours, the plants were contaminated by spraying the leaves with an aqueous suspension of Sphaerotheca fuliginea spores.

Alternaria brassicae = assay: In vivo preventive test on Alternaria brassicae (leaf spot on radish or cabbage); settings: 144 h, 500 ppm of active ingredient, preventive spray on young radish or cabbage plants, evaluated 6 days after inoculation, read-out: efficacy
Description: as §1, with “radish or cabbage” for “gherkin”, “Alternaria brassicae” for “Sphaerotheca fuliginea”

[1] = Measurement of Log P values by HPLC on reversed phase columns (EEC directive 79/831 Annex V.A8); type: physicochemical; settings: LogP
Procedure, shortened: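 Calibration used straight-chain alkan-2-ones (3 to 16 carbons) of known Log P, interpolating linearly between retention times. Values come from reversed-phase LC-UV (EEC 79/831 Annex V.A8), 10% to 95% acetonitrile gradient against 0.1% formic acid, 0.001 molar ammonium acetate, or 0.1% phosphoric acid.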

Pyrenophora teres = Pyrenophora teres in vitro cell test; type: cell-based; settings: 144 h, 20 ppm of active ingredient, 6 days incubation, liquid culture, spectrometric measurement of mycelium growth, read-out: efficacy (inhibition of fungal growth)
Description: (§2) • Solvent: DMSO • Culture medium: 14.6 g anhydrous D-glucose (VWR), 7.1 g Mycological Peptone (Oxoid), 1.4 g granulated Yeast Extract (Merck), QSP 1 liter • Inoculum: spore suspension Fungicides were solubilized in DMSO and the solution used to prepare the required range of concentrations. […] A spore suspension of P. teres was prepared and diluted to the desired spore density. Fungicides were evaluated for their ability to inhibit spore germination and mycelium growth in liquid culture assay. The compounds were added in the desired concentration to the culture medium with spores. After 6 days incubation, fungi-toxicity of compounds was determined by spectrometric measurement of mycelium growth. Inhibition of fungal growth was determined by comparing the absorbance values in wells containing the fungicides with the absorbance in control wells without fungicides.

Septoria tritici = Septoria tritici in vitro cell test; type: cell-based; settings: Zymoseptoria tritici, 168 h; 20 ppm of active ingredient; 7 days incubation; liquid culture, spectrometric measurement of mycelium growth; read-out: efficacy (inhibition of fungal growth)
Description: • Solvent: DMSO • Culture medium: 1 g KH2PO4 (VWR), 1 g K2HPO4 (VWR), 0.5 g Urea (VWR), 3 g KNO3 (Prolabo), 10 g saccharose (VWR), 0.5 g MgSO4, 7H2O (Sigma), 0.07 g CaCl2, 2H2O (Prolabo), 0.2 mg MnSO4, H2O (Sigma), 0.6 mg CuSO4, 5H2O (Sigma), 7.9 mg ZnSO4, 7H2O (Sigma), 0.1 mg H3BO3 (Merck), 0.14 mg NaMoO4, 2H2O (Sigma), 2 mg thiamine (Sigma), 0.1 mg biotine (VWR), 4 mg FeSO4, 7H2O (Sigma), QSP 1 liter • Inoculum: spore suspension Fungicides were solubilized in DMSO and the solution used to prepare the required range of concentrations. […] A spore suspension of S. tritici was prepared and diluted to the desired spore density. Fungicides were evaluated for their ability to inhibit spore germination and mycelium growth in liquid culture assay. The compounds were added in the desired concentration to the culture medium with spores. […] Inhibition of fungal growth was determined by comparing the absorbance values in wells containing the fungicides with the absorbance in control wells without fungicides.

Botrytis cinerea = Botrytis cinerea in vitro cell test; type: cell-based; settings: 144 h, 20 ppm of active ingredient, 6 days incubation, liquid culture, spectrometric measurement of mycelium growth, read-out: efficacy (inhibition of fungal growth)
Description: • Solvent: DMSO • Culture medium: 1 g KH2PO4 (VWR), 1 g K2HPO4 (VWR), 0.5 g Urea (VWR), 3 g KNO3 (Prolabo), 10 g saccharose (VWR), 0.5 g MgSO4, 7H2O (Sigma), 0.07 g CaCl2, 2H2O (Prolabo), 0.2 mg MnSO4, H2O (Sigma), 0.6 mg CuSO4, 5H2O (Sigma), 7.9 mg ZnSO4, 7H2O (Sigma), 0.1 mg H3BO3 (Merck), 0.14 mg NaMoO4, 2H2O (Sigma), 2 mg thiamine (Sigma), 0.1 mg biotine (VWR), 4 mg FeSO4, 7H2O (Sigma), QSP 1 liter • Inoculum: spore suspension Fungicides were solubilized in DMSO and the solution used to prepare the required range of concentrations. […] A spore suspension of B. cinerea was prepared and diluted to the desired spore density. Fungicides were evaluated for their ability to inhibit spore germination and mycelium growth in liquid culture assay. The compounds were added in the desired concentration to the culture medium with spores. After 6 days incubation, fungi-toxicity of compounds was determined by spectrometric measurement of mycelium growth. Inhibition of fungal growth was determined by comparing the absorbance values in wells containing the fungicides with the absorbance in control wells without fungicides.

[2] = system: Colletotrichum lindemuthianum; assay: Colletotrichum lindemuthianum in vitro cell test; type: cell-based; settings: 144 h, 20 ppm of active ingredient, 6 days incubation, liquid culture, spectrometric measurement of mycelium growth, read-out: efficacy (inhibition of fungal growth)
Description: as §2, with “of C. lindemuthianum” for “of P. teres”, “inhibit spores” for “inhibit spore”

SMILES | pest or weed control at 500 ppm (Sphaerotheca fuliginea) [%] | pest or weed control at 500 ppm (Alternaria brassicae) [%] | chromatographic logP [1] | inhibition at 20 ppm (Pyrenophora teres) [%] | inhibition at 20 ppm (Septoria tritici) [%] | inhibition at 20 ppm (Botrytis cinerea) [%] | inhibition at 20 ppm [2] [%]
Cc1ncc(Oc2cccc(C(F)(F)F)c2)c(C2=NOC[C@@H](Cc3ccc(C(F)F)cc3Cl)N2)n1 (racemic) [Compound I-033] | 90 to 100 | 90 to 100 | 4.02 | 90 to 100 | 90 to 100 | 90 to 100 | 90 to 100
Cc1ccc(C[C@@H]2CON=C(c3nc(C)ncc3Oc3cccc(Cl)c3F)N2)c(Cl)c1 (racemic) [Compound I-005] | 90 to 100 | 90 to 100 | 4.19 | 90 to 100 | 90 to 100 | 90 to 100 | 90 to 100
Cc1cccc(Oc2cnc(C)nc2C2=NOC[C@@H](Cc3ccc(C)cc3C)N2)c1 (racemic) [Compound I-004] | 90 to 100 | 90 to 100 | 3.95 | 90 to 100 | 90 to 100 | 90 to 100 | 90 to 100
Cc1ccc(C[C@@H]2CON=C(c3nc(C)ncc3Oc3cccc(Br)c3)N2)c(C)c1 (racemic) [Compound I-009] | 90 to 100 | 90 to 100 | 4.44 | 90 to 100 | 90 to 100 | 90 to 100 | 90 to 100
C=Cc1cccc(Oc2cnc(C)nc2C2=NOC[C@@H](Cc3ccc(C)cc3C)N2)c1 (racemic) [Compound I-019] | 80 to 89 | 90 to 100 | 4.09 | 90 to 100 | 90 to 100 | 90 to 100 | 90 to 100
Cc1ncc(Oc2cccc(C(F)(F)F)c2)c(C2=NOCC(Cc3ccc(C4CC4)cc3C)N2)n1 (racemic) [Compound I-029, (5RS)-5-[(4-cyclopropyl-2-methyl-phenyl)methyl]-3-[2-methyl-5-[3-(trifluoromethyl)phenoxy]pyrimidin-4-yl]-5,6-dihydro-4H-1,2,4-oxadiazine] | 90 to 100 | 90 to 100 | 4.7 | 90 to 100 | 90 to 100 | 90 to 100 | 90 to 100
Cc1ccc(C[C@@H]2CON=C(c3nc(C)ncc3Oc3cccc(C4CC4)c3F)N2)c(Cl)c1 (racemic) [Compound I-008] | 90 to 100 | 90 to 100 | 4.49 | 90 to 100 | 90 to 100 | 90 to 100 | 90 to 100
Cc1ccc(C[C@@H]2CON=C(c3nc(C)ncc3Oc3cccc(Cl)c3)N2)c(Cl)c1 (racemic) [Compound I-018] | 90 to 100 | 90 to 100 | 4.22 | 90 to 100 | 90 to 100 | 90 to 100 | 90 to 100
C=Cc1ccc(C[C@@H]2CON=C(c3nc(C)ncc3Oc3cccc(C(F)(F)F)c3)N2)c(C)c1 (racemic) [Compound I-006] | 90 to 100 | 90 to 100 | 4.44 | 90 to 100 | 90 to 100 | 90 to 100 | 90 to 100
Cc1ncc(Oc2cccc(C(F)(F)F)c2)c(C2=NOC[C@@H](Cc3ccc(SC(F)(F)F)cc3)N2)n1 (racemic) [Compound I-030] | 90 to 100 | 80 to 89 | 4.62 | 90 to 100 | 70 to 79 | 90 to 100 | 90 to 100
